From patent US9427415B2, “Methods and compositions for modifying sensorial perception” (The Procter & Gamble Company, priority 2014, dated 2016)
Values joined by “and” are separate entries in the source; they are usually repeats but may differ in a detail not shown here. Equal entries are not always repeated. Structures can show the parent of a compound that is named as a salt. Where two headings read alike, the source gives them in different places.

What was measured:
human TRPA1 = biological target: T1, human TRPA1 (Homo sapiens, UniProt O75762, K186N/R3C/R58T); experiment: Intracellular calcium (Fluo-4, FLIPR) activation of TRPA1 cells by GRAS compounds; assay type: cell-based; conditions: for activation at 1000 µM / activation at 100 µM: read-out: A1 activation, % of agonist value;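 for all read-outs here: TRPA1-expressing cells, fluorescence read on a FLIPR Tetra (ex 488 nm, em 514 nm) every 2 s for 10 min after compound addition, baseline subtracted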
T1 construct: expressed in transfected cells; pcDNA3 control cells

TRPA1V1 = experiment: Intracellular calcium (Fluo-4, FLIPR) activation of TRPA1V1 cells (co-expressing TRPA1 and TRPV1) by GRAS compounds; assay type: cell-based, human;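 note: HEK293 cells co-expressing TRPA1 and TRPV1, fluorescence read at 488/514 nm after baseline subtraction, recorded every 2 s over 10 min, ionomycin 10 µM and buffer as controls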
Description: TRPV1, TRPA1, TRPA1V1 and pcDNA3 cells were grown in 15 mL growth medium [high glucose DMEM (Dulbecco's modification of Eagle's medium) supplemented with 10% FBS (fetal bovine serum), 100 μg/mL penicillin/streptomycin, 100 μg/mL G418] in a 75 cm^2 flask for 3 days in a mammalian cell culture incubator at 33° C. and 5% CO2. TRP Cells were detached with 8 mL of PBS (without calcium or magnesium); for pcDNA3 cells, trypsin was used for releasing the cells. The detached cells were spun at low speed (800-900 rpm for 3 min) to pellet the cells. […] The cells were washed once with 45 mL assay buffer (1×HBSS, 20 mM HEPES) by low speed centrifugation (800-900 rpm for 3 min) and resuspended in 11 mL of the assay buffer in a reagent reservoir. […] The plates were set at room temperature for 30 min. The plates were read in a FLIPR^TETRA instrument (Molecular Devices, Sunnyvale, Calif.) at λex 488 nm and λem 514 nm to record baseline fluorescence following which 20 μL of test material at 1 mM or 100 μM final concentration for pure compounds in a GRAS library or 0.004% for extracts. For agonists, capsaicin 350 nM and AITC at 30 μM; and for controls, ionomycin 10 μM and buffer alone) was added to each well using the dispenser provided in the FLIPR. The data point was recorded every 2 seconds for a total of 10 min.
Average value for activation from three independent assay plates are presented as % of agonist value (AITC, 30 μM for TRPA1 and capsaicin, 350 nM for TRPV1. For TRPA1V1, we used AITC, 30 μM or capsaicin, 350 nM depending on if the compound is an A1 agonist or a V1 agonist. For compounds that activated both A1 and V1, we used AITC for normalization). Variation among triplicates was within 10% of each other. Assayed at 1 mM for pure compounds and 0.004% for extracts.

[1] = Table 1(c), 1 mM, relative to AITC 30 μM
[2] = Table 1(d), 1 mM, relative to AITC 30 μM
[3] = Table 1(e), 1 mM, relative to AITC 30 μM
[4] = Table 1(c), 100 μM (*), relative to AITC 30 μM
[5] = Table 1(d), 100 μM (*), relative to AITC 30 μM

T1 sequence (O75762 whole entry R3C/R58T/K186N): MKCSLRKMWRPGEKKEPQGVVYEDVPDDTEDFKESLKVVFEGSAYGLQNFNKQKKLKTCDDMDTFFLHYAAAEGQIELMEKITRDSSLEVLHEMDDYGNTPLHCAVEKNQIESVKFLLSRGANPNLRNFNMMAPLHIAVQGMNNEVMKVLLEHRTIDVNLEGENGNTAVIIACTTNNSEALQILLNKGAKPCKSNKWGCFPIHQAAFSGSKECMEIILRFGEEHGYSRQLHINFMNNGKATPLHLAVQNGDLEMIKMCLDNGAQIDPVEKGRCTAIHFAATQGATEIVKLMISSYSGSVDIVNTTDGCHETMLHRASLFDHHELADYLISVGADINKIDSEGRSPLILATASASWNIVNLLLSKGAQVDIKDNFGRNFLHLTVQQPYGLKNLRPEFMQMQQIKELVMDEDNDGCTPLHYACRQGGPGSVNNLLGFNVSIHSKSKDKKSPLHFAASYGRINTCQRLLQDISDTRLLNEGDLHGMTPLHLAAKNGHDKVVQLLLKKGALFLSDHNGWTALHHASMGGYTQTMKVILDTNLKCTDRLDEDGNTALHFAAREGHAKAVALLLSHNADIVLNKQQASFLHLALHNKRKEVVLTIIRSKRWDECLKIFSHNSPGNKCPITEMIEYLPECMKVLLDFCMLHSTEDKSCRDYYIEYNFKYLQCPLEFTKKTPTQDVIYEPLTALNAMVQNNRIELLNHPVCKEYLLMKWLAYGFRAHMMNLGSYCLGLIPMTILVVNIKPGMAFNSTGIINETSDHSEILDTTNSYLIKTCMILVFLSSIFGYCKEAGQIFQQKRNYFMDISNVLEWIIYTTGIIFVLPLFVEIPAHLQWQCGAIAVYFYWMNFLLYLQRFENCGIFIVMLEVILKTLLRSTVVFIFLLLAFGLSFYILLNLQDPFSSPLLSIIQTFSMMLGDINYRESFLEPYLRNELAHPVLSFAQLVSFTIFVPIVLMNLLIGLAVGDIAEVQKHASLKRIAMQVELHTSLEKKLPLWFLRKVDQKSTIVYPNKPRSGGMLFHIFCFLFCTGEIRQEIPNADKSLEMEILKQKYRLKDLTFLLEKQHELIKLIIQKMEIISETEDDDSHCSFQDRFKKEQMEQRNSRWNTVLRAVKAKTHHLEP

Molecule | A1V1 activation, % of agonist value (TRPA1V1; [1]) | activation at 1000 µM (human TRPA1; [1]) [%] | also measured
CC=C(C=O)c1ccccc1 [2-Phenyl-2-butenal] | – | – | activation at 1000 µM (human TRPA1): 65.8%; A1V1 activation, % of agonist value (TRPA1V1): 82.8%
CC(=O)/C=C/C1C(C)=CCCC1(C)C (racemic) [(+/−)-Alpha-Ionone] | 64.21% | – | A1 activation, % of agonist value (human TRPA1; [1]): 64.62%
CC(C)C(=O)OCCOc1ccccc1 [Phenoxyethyl isobutyrate] | – | – | activation at 1000 µM (human TRPA1; [2]): 81%; A1V1 activation, % of agonist value (TRPA1V1; [2]): 53.9%
C=CCc1ccc(OC(=O)CC(C)C)c(OC)c1 [Eugenyl isovalerate] | – | – | activation at 1000 µM (human TRPA1; [3]): 59.7%; A1V1 activation, % of agonist value (TRPA1V1; [3]): 79.29%
C=C(C)CCC[C@H](C)CCOC(=O)CC [Rhodinyl propionate] | 86.44% | – | A1 activation, % of agonist value (human TRPA1; [1]): 75.56%
CCCC(=O)OCc1ccccc1 [Benzyl butyrate] | 64.7% | 70 | –
O=CC=Cc1ccco1 [3-(2-Furyl)acrolein] | 66.5% | 68.4 | –
CC(=O)SCc1ccco1 [Furfurylthiol acetate] | – | – | A1 activation, % of agonist value (human TRPA1; [2]): 75.5%; A1V1 activation, % of agonist value (TRPA1V1; [2]): 60%
O=C(OCCc1ccccc1)c1ccco1 [2-Furoic acid, phenethyl ester] | 145% | 155 | –
O=C(CCl)c1ccccc1 [2-Chloroacetophenone] | 103% | – | activation at 100 µM (human TRPA1): 93.6%; activation at 1000 µM (human TRPA1): 91.4%; A1V1 activation, % of agonist value (TRPA1V1; [4]): 88.8%
Cn1cccc1C=O [1-Methylpyrrole-2-carboxaldehyde] | 87.70% | 81.1 | –
CCOC(=O)c1ccc(OC)cc1 [Ethyl p-anisate] | 93.1% | 91.2 | –
CC(C)=CCCC(C)C=O (stereo not drawn) [Melonal] | 57% | – | A1 activation, % of agonist value (human TRPA1; [1]): 52%
CC(=O)c1ccc2ccccc2c1 [2-Acetylnaphthalene] | 69.41% | 60.3 | –
C=CCCC(=O)/C=C/C1C(C)=CCCC1(C)C (stereo not drawn) [Allyl-alpha-ionone] | – | – | A1 activation, % of agonist value (human TRPA1; [3]): 52.6%; A1V1 activation, % of agonist value (TRPA1V1; [3]): 89.7%
Cc1ccc(CO)o1 [2-Furanmethanol, 5-methyl-] | 76.02% | 77.3 | –
CC(C)N=C=S [Isopropyl isothiocyanate] | – | – | activation at 1000 µM (human TRPA1; [3]): 41.8%; A1V1 activation, % of agonist value (TRPA1V1; [3]): 71.6%
CC(C)OC(=O)Cc1ccccc1 [Isopropyl phenylacetate] | – | – | activation at 1000 µM (human TRPA1; [2]): 80.2%; A1V1 activation, % of agonist value (TRPA1V1; [2]): 60.9%
O=C(Nc1ccccc1C(=O)O)c1ccccc1 [Benzoylanthranilic acid] | 125.6% | – | A1 activation, % of agonist value (human TRPA1; [1]): 145.9%
CC=CC(=O)CC [2-Hexen-4-one] | – | – | activation at 1000 µM (human TRPA1; [2]): 53%; A1V1 activation, % of agonist value (TRPA1V1; [2]): 24.5%
CC1=CCCC(C)(C)C12CCC(C)O2 (stereo not drawn) [Theaspirane] | 84% | – | A1 activation, % of agonist value (human TRPA1; [1]): 99%
CCCCCCCCCCC=CC=O [2-Tridecenal] | 102% and 101% | – | activation at 100 µM (human TRPA1; [5]): 76.3%; A1V1 activation, % of agonist value (TRPA1V1; [5]): 43.5%
CCCCCC=CC(=O)OCC [Ethyl 2-octenoate] | 120% | 128 | –

Molecule | A1V1 activation, % of agonist value (TRPA1V1; [1]) | activation at 1000 µM (human TRPA1; [1]) [%] | also measured
CC/C=C/C=O [Trans-2-Pentenal] | 68.62% | 80.9 | –
CC(C=O)Cc1ccc(C(C)C)cc1 (stereo not drawn) [Cyclamen aldehyde] | – | – | A1 activation, % of agonist value (human TRPA1; [3]): 94.1%; A1V1 activation, % of agonist value (TRPA1V1; [3]): 120.9%
CC=CC=CCOC(=O)CC [2,4-Hexadienyl propionate] | 91.20% | 93.2 | –
C=C(C)CCC[C@H](C)CCOC(=O)CC(C)C [Rhodinyl isovalerate] | 48.29% | – | A1 activation, % of agonist value (human TRPA1; [1]): 54.92%
COc1ccc(/C=C/C=O)cc1 [Trans-p-methoxy cinnamaldehyde] | – | – | activation at 1000 µM (human TRPA1; [3]): 58.8%; A1V1 activation, % of agonist value (TRPA1V1; [3]): 75.99%
COc1ccccc1C=CC=O [O-Methoxycinnamaldehyde] | 55.99% | – | A1 activation, % of agonist value (human TRPA1; [1]): 65.3%
CCCCCCCC/C=C/C=O [(2E)-Undecenal] | 48.8% | – | A1 activation, % of agonist value (human TRPA1; [1]): 59.6%
CCCC(CCOC(C)=O)SC(C)=O (stereo not drawn) [3-(Acetylmercapto)hexyl acetate] | – | – | activation at 1000 µM (human TRPA1; [3]): 22.3%; A1V1 activation, % of agonist value (TRPA1V1; [3]): 52.79%
CCOC(=O)C(Cc1ccccc1)C(C)=O (stereo not drawn) [Ethyl 2-benzylacetoacetate] | 115% | – | activation at 1000 µM (human TRPA1): 98%
CC/C=C/C=C/CO [(E,E)-Hepta-2,4-dien-1-ol] | 133.3% | 146 | –
CCCCCC=CC=CCO [2,4-Decadienol] | 52.2% | 48.6 | –
C=C(C)[C@@H]1CC=C(C=O)CC1 [L-Perillaldehyde] | 138.2% | – | A1 activation, % of agonist value (human TRPA1; [1]): 127.7%
C=CCc1ccc(OC(C)=O)c(OC)c1 [Eugenyl acetate] | 83.94% | 75.4 | –
2-mercaptopropanoate | – | – | A1 activation, % of agonist value (human TRPA1; [2]): 101.5%; A1V1 activation, % of agonist value (TRPA1V1; [2]): 54.3%
CCCCC/C=C/C=O [trans-2-Octanal] | 115% | – | A1 activation, % of agonist value (human TRPA1; [1]): 112%
O=CC1=CCCCC1 [1-Cyclohexene-1-carboxaldehyde] | 48.37% | 45.9 | –
CCCCCCOC(=O)CCC [Hexyl butyrate] | – | – | activation at 1000 µM (human TRPA1; [3]): 43.2%; A1V1 activation, % of agonist value (TRPA1V1; [3]): 55.89%
C=CCCN=C=S [3-Butenyl isothiocyanate] | 85.8% | 99.4 | –
COc1ccc(C=C(C)C=O)cc1 [Alpha Methyl-4-methoxycinnamaldehyde] | – | – | activation at 1000 µM (human TRPA1; [3]): 67.1%; A1V1 activation, % of agonist value (TRPA1V1; [3]): 85.80%
COc1ccc(COC=O)cc1 [Anisyl formate] | 78.2% | – | A1 activation, % of agonist value (human TRPA1; [1]): 89.5%
CC1=CC(=O)CCC1 [3-Methyl-2-cyclohexen-1-one] | 94.76% | 94.5 | –
CCCC=C1OC(=O)c2ccccc21 [3-Butylidenephthalide] | 115.4% | 119 | –
O=Cc1ccccc1O [Salicylaldehyde] | 65.6% | 66.9 | –

Molecule | A1V1 activation, % of agonist value (TRPA1V1; [1]) | activation at 1000 µM (human TRPA1; [1]) [%] | also measured
Myrtenal | 111.3% | – | A1 activation, % of agonist value (human TRPA1; [1]): 95.8%
CC/C=C\CCOC(=O)C/C=C\CC [cis-3-Hexenyl cis-3-hexenoate] | 97.4% | 107 | –
CCCCCCOC(=O)c1cccnc1 [Hexyl nicotinate] | – | – | activation at 1000 µM (human TRPA1; [2]): 72.9%; A1V1 activation, % of agonist value (TRPA1V1; [2]): 54.4%
OCC(=CCc1ccco1)c1ccccc1 [3-(2-Furfuryl)-2-phenylpropenol] | – | – | A1 activation, % of agonist value (human TRPA1; [4]): 81.3%; A1V1 activation, % of agonist value (TRPA1V1; [4]): 72.4%
CC(C)[C@@H]1CC[C@@H](C)C[C@H]1O (racemic) [DL-Menthol] | 43.05% | – | A1 activation, % of agonist value (human TRPA1; [1]): 54.02%
CC(=O)c1cc(C)oc1C [3-Acetyl-2,5-dimethylfuran] | 61% | 73.5 | –
C/C=C(\C)C(=O)OC(CC)CCCCC (stereo not drawn) [1-Ethylhexyl Tiglate] | – | – | activation at 1000 µM (human TRPA1; [2]): 50.6%; A1V1 activation, % of agonist value (TRPA1V1; [2]): 31.87%
C=C(C)[C@@H]1CCC2=CCC[C@@H](C)[C@]2(C)C1 [Valencene] | 66.32% | – | A1 activation, % of agonist value (human TRPA1; [1]): 61.97%
Cc1c[nH]c2ccccc12 [Skatole] | 102.9% | 116 | activation at 100 µM (human TRPA1; [4]): 66.2%; A1V1 activation, % of agonist value (TRPA1V1; [4]): 71.4%
CCOC(=O)CCc1ccccc1 [Ethyl hydrocinnamate] | – | – | activation at 1000 µM (human TRPA1; [2]): 72.2%; A1V1 activation, % of agonist value (TRPA1V1; [2]): 50.9%
Cc1ccc(C=O)c(C)c1 [2,4-Dimethylbenzaldehyde] | 102.8% | 107 | –
Ammonium carbonate | 58.42% | – | –
COC(=O)c1ccccc1NC=O [Methyl o-formamidobenzoate] | 75.64% | 75.4 | –
COc1ccc2ncccc2c1 [6-Methoxyquinoline] | – | – | activation at 1000 µM (human TRPA1; [3]): 57.8%; A1V1 activation, % of agonist value (TRPA1V1; [3]): 130.5%
CC/C=C\CCOC(=O)CC(C)C [cis-3-Hexenyl isovalerate] | – | – | activation at 1000 µM (human TRPA1; [2]): 71.7%; A1V1 activation, % of agonist value (TRPA1V1; [2]): 51.6%
CCCCCCC/C=C/C=C/C=O [(E,E)-2,4-Dodecadienal] | – | – | activation at 1000 µM (human TRPA1; [2]): 159%; A1V1 activation, % of agonist value (TRPA1V1; [2]): 55.4%
CC(C)=CCCC(C)=CC=O [Citral] | 132.7% | 145 | –
CCCC(=O)OCCC(C)CCC=C(C)C (stereo not drawn) [Citronellyl butyrate] | – | – | activation at 100 µM (human TRPA1; [4]): 44.9%; A1V1 activation, % of agonist value (TRPA1V1; [4]): 57.9%
S=C=NCCc1ccccc1 [Phenethyl isothiocyanate] | 81.46% | 92 | –
C=CCc1ccc(O)c(OC)c1 [Eugenol] | 91.29% | 79 | –
C=C(C)C1CC=C(C)C(OC(C)=O)C1 (single isomer, unassigned; (-)) [(−)-Carvyl acetate] | 37% | – | A1 activation, % of agonist value (human TRPA1; [1]): 31.2%
